Experimental findings from publication PMC8286840, “Identifying SARS-CoV-2 antiviral compounds by screening for small molecule inhibitors of Nsp3 papain-like protease” (Biochemical Journal, 2021) are described below.

Read-outs that look alike come from different tables or passages of the source.

Assay [1] concerns the target T1, SARS-CoV-2 PLpro (nsp3 1564–1878) (Severe acute respiratory syndrome coronavirus 2, UniProt P0DTD1). As to the kind of experiment: biochemical. More on the design: FRET-quenched peptide (Pro3) cleavage by PLpro, 10 min pre-incubation, slope over 20 min, normalised to no-compound control. As to conditions: high concentration screen, read-out: % of control remaining.

Assay [2] concerns the target T1, SARS-CoV-2 PLpro (nsp3 1564–1878). Nature of the assay: biochemical. More on the design: FRET-quenched peptide (Pro3) cleavage by PLpro, 10 min pre-incubation, slope over 20 min, normalised to no-compound control. To be noted: low concentration screen, read-out: % of control remaining.

For `CCNC(=O)[C@@H]1CCCN1C(=O)[C@H](CCCN=C(N)N)NC(=O)[C@H](CC(C)C)NC(=O)[C@@H](C)NC(=O)[C@H](Cc1ccc(O)cc1)NC(=O)[C@H](CO)NC(=O)[C@H](Cc1c[nH]c2ccccc12)NC(=O)[C@H](Cc1cnc[nH]1)NC(=O)[C@@H]1CCC(=O)N1` [Alarelin (Acetate)], the remaining activity at 3.75 µM in assay [1] (Well no.=8383) worked out at 97%. The remaining activity at 1.25 µM in assay [2] (Well no.=8383) stood at 98.8%.

In the case of `CCCSc1ccc2[nH]c(NC(=O)OC)nc2c1` [Albendazole], the remaining activity at 3.75 µM in assay [1] (Well no.=2083) stood at 105%. The remaining activity at 1.25 µM in assay [2] (Well no.=2083) was found to be 103%.

In the case of `CN1CCC(=C2c3ccccc3CCn3c(C=O)cnc32)CC1` [Alcaftadine], the remaining activity at 3.75 µM in assay [1] (Well no.=6573) was found to be 91.1%. Moreover, the remaining activity at 1.25 µM in assay [2] (Well no.=6573) stood at 94.6%.

In the case of `O=C(NCc1ccc2c(c1)OCO2)c1c(Cl)cccc1Cl` [Alda-1], the remaining activity at 3.75 µM in assay [1] (Well no.=5935) was 99.3%. Besides, in assay [2] (Well no.=5935), the remaining activity at 1.25 µM was determined as 101%.

Take `NCCCC(O)(P(=O)(O)O)P(=O)(O)O` [Alendronate]: in assay [1] (Well no.=2079), the remaining activity at 3.75 µM stood at 104%. Also, the remaining activity at 1.25 µM in assay [2] (Well no.=2079) came to 105%.

As for `C=C1/C(=C\C=C2/CCC[C@]3(C)[C@@H]([C@H](C)CCCC(C)C)CC[C@@H]23)C[C@@H](O)C[C@@H]1O` [Alfacalcidol], in assay [1] (Well no.=1854), the remaining activity at 3.75 µM turned out to be 99.8%. In addition, in assay [2] (Well no.=1854), the remaining activity at 1.25 µM was determined as 96.4%.

For `COc1cc2nc(N(C)CCCNC(=O)C3CCCO3)nc(N)c2cc1OC` (centres unmarked) [Alfuzosin], the remaining activity at 3.75 µM amounted to 97.8% in assay [1] (Well no.=1809) and 92.3% in assay [1] (Well no.=6749). For the same compound, the remaining activity at 1.25 µM in assay [2] (Well no.=1809) was determined as 98.4%; in assay [2] (Well no.=6749), 100%.

Regarding `C=CCc1cc(OC)c(O)c(C(=O)NCCO)c1` [Alibendol], the remaining activity at 3.75 µM in assay [1] (Well no.=5002) was 94.9%. The remaining activity at 1.25 µM in assay [2] (Well no.=5002) came out at 101%.

Turning to `COc1cc(Nc2ncc3c(n2)-c2ccc(Cl)cc2C(c2c(F)cccc2OC)=NC3)ccc1C(=O)O` [Alisertib], the remaining activity at 3.75 µM in assay [1] (Well no.=6164) came to 103%. Also, in assay [2] (Well no.=6164), the remaining activity at 1.25 µM amounted to 103%.

Take `COCCCOc1cc(C[C@@H](C[C@H](N)[C@@H](O)C[C@H](C(=O)NCC(C)(C)C(N)=O)C(C)C)C(C)C)ccc1OC` [Aliskiren hemifumarate]: the remaining activity at 3.75 µM in assay [1] (Well no.=5148) is 104%. Further, the remaining activity at 1.25 µM in assay [2] (Well no.=5148) is 107%.

For the compound `O=C1c2ccccc2C(=O)c2c1ccc(O)c2O` [Alizarin], the remaining activity at 3.75 µM in assay [1] (Well no.=5284) is 95.1%. For the same compound, in assay [2] (Well no.=5284), the remaining activity at 1.25 µM came out at 94.6%.

Turning to `CC1=C(/C=C/C(C)=C/C=C/C(C)=C/C=O)C(C)(C)CCC1` [All-trans-retinal], the remaining activity at 3.75 µM in assay [1] (Well no.=7443) is 102%. Besides, in assay [2] (Well no.=7443), the remaining activity at 1.25 µM stood at 102%.

In the case of `NC(=O)NC1NC(=O)NC1=O` (centres unmarked) [Allantoin], the remaining activity at 3.75 µM in assay [1] (Well no.=6631) turned out to be 106%; in assay [1] (Well no.=8145) it was 97.6%. In addition, the remaining activity at 1.25 µM in assay [2] (Well no.=6631) turned out to be 104%; in assay [2] (Well no.=8145) it was 106%.

As for `CC(=O)[C@H]1CC[C@H]2[C@@H]3CC[C@H]4C[C@H](O)CC[C@]4(C)[C@H]3CC[C@]12C` [Allopregnanolone], the remaining activity at 3.75 µM in assay [1] (Well no.=6197) was determined as 107%. Moreover, the remaining activity at 1.25 µM in assay [2] (Well no.=6197) amounted to 105%.

With `Oc1ncnc2[nH]ncc12` [Allopurinol], the remaining activity at 3.75 µM in assay [1] (Well no.=102) was found to be 105%; in assay [1] (Well no.=2077), 104%. The remaining activity at 1.25 µM in assay [2] (Well no.=102) is 106%; in assay [2] (Well no.=2077), 104%.

For `O=c1[nH]c(=O)c2nc3ccccc3nc2[nH]1` [Alloxazine], in assay [1] (Well no.=354), the remaining activity at 3.75 µM turned out to be 88.5%. The remaining activity at 1.25 µM in assay [2] (Well no.=354) came to 90.3%.

In the case of `C=CCNC(N)=S` [Allylthiourea], the remaining activity at 3.75 µM in assay [1] (Well no.=5076) came out at 106%. In addition, in assay [2] (Well no.=5076), the remaining activity at 1.25 µM worked out at 106%.

Take `CN(C)CCc1c[nH]c2ccc(CS(=O)(=O)N3CCCC3)cc12` [Almotriptan (malate)]: the remaining activity at 3.75 µM in assay [1] (Well no.=6271) stood at 106%. For the same compound, the remaining activity at 1.25 µM in assay [2] (Well no.=6271) was 106%.

As for `O=C1c2cccc(O)c2C(=O)c2c(O)cc(CO)cc21` [Aloe-emodine], the remaining activity at 3.75 µM in assay [1] (Well no.=3156) is 102%. Besides, in assay [2] (Well no.=3156), the remaining activity at 1.25 µM is 105%.
